# Laboratory results: ChEMBL document CHEMBL4507274 (2021)
# Columns and labels:
# [1] = molecular target: Tyrosine-protein kinase ABL1 (Homo sapiens) (UniProt P00519); conditions: Compound concentration 100.0 nM
# [2] = molecular target: Atypical kinase COQ8A, mitochondrial (Homo sapiens) (UniProt Q8NI60); conditions: Compound concentration 100.0 nM
# [3] = molecular target: Aurora kinase C (Homo sapiens) (UniProt Q9UQB9); conditions: Compound concentration 100.0 nM
# [4] = molecular target: T1, Serine/threonine-protein kinase Chk1 (Homo sapiens) (UniProt O14757); conditions: Compound concentration 100.0 nM
# T1 sequence (whole entry): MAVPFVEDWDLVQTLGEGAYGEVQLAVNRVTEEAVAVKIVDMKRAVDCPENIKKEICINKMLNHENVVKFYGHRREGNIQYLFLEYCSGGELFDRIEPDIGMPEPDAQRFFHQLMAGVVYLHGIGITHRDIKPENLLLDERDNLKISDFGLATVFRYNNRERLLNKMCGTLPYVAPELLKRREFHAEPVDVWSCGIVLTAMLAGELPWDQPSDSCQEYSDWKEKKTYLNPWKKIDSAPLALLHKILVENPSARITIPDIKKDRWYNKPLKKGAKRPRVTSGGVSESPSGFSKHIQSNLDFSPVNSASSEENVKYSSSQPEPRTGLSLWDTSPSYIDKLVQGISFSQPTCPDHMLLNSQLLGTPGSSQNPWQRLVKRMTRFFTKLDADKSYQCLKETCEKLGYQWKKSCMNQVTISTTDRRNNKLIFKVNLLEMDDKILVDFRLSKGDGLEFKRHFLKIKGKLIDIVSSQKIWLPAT
# [5] = molecular target: Casein kinase I isoform alpha-like (Homo sapiens) (UniProt Q8N752); conditions: Compound concentration 100.0 nM
# [6] = molecular target: T2, Ephrin type-B receptor 4 (Homo sapiens) (UniProt P54760); conditions: Compound concentration 100.0 nM
# T2 sequence (whole entry): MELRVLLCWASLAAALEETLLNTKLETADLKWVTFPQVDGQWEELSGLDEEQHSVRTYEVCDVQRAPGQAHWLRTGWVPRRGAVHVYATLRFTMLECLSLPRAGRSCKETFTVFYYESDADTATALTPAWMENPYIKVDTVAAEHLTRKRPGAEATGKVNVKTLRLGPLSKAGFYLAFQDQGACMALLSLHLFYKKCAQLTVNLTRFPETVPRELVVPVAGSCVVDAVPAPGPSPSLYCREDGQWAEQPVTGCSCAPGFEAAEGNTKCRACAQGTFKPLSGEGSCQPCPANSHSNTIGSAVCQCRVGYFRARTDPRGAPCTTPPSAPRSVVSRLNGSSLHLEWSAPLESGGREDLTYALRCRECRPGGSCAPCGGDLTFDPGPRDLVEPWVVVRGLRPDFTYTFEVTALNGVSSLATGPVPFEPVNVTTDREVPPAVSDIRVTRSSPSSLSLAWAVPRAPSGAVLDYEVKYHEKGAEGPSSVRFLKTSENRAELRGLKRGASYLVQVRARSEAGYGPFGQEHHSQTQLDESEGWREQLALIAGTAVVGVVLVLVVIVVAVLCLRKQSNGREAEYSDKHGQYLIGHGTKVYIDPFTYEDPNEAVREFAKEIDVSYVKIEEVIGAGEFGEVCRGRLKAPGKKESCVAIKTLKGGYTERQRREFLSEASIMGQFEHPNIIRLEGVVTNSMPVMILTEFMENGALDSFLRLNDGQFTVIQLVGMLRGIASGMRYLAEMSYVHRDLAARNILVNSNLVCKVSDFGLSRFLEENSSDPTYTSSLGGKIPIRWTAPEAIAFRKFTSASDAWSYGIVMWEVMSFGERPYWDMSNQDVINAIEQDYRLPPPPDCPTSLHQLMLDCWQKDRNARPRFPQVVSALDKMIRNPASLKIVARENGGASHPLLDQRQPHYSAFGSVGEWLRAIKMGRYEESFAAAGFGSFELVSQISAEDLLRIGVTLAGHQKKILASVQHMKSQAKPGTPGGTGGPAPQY
# [7] = molecular target: Mitogen-activated protein kinase 1 (Homo sapiens) (UniProt P28482); conditions: Compound concentration 100.0 nM
# Mitogen-activated protein kinase 1 (Homo sapiens), sequence (P28482 whole entry): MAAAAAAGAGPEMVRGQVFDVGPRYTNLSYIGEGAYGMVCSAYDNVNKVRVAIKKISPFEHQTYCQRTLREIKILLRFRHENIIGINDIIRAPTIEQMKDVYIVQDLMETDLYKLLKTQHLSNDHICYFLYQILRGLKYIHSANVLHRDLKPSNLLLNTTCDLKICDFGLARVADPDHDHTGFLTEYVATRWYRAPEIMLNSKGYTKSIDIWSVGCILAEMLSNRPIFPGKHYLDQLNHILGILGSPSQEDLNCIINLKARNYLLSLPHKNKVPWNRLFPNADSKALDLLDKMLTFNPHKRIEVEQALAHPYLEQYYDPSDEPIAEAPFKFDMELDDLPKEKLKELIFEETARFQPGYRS
# [8] = system: Receptor-type tyrosine-protein kinase FLT3 (Homo sapiens), P36888 [UNDEFINED MUTATION]; conditions: Compound concentration 100.0 nM
# [9] = molecular target: Glycogen synthase kinase-3 alpha (Homo sapiens) (UniProt P49840); conditions: Compound concentration 100.0 nM
# Glycogen synthase kinase-3 alpha (Homo sapiens), sequence (P49840 2-483 limits assumed): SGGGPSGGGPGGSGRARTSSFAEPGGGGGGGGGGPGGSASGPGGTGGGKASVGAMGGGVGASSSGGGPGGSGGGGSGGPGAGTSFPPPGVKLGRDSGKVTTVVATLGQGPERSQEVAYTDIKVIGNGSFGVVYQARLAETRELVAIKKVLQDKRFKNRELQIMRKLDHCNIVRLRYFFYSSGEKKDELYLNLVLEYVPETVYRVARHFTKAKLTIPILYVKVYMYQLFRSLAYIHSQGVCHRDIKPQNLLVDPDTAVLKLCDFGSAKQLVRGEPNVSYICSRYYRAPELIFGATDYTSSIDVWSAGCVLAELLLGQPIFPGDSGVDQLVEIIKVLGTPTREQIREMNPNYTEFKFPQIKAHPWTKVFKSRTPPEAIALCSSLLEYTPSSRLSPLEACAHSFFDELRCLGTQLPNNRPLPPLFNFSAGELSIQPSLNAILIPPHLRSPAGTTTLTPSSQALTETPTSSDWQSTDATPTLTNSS
# [10] = molecular target: Inhibitor of nuclear factor kappa-B kinase subunit epsilon (Homo sapiens) (UniProt Q14164); conditions: Compound concentration 100.0 nM
# Inhibitor of nuclear factor kappa-B kinase subunit epsilon (Homo sapiens), sequence (Q14164 whole entry): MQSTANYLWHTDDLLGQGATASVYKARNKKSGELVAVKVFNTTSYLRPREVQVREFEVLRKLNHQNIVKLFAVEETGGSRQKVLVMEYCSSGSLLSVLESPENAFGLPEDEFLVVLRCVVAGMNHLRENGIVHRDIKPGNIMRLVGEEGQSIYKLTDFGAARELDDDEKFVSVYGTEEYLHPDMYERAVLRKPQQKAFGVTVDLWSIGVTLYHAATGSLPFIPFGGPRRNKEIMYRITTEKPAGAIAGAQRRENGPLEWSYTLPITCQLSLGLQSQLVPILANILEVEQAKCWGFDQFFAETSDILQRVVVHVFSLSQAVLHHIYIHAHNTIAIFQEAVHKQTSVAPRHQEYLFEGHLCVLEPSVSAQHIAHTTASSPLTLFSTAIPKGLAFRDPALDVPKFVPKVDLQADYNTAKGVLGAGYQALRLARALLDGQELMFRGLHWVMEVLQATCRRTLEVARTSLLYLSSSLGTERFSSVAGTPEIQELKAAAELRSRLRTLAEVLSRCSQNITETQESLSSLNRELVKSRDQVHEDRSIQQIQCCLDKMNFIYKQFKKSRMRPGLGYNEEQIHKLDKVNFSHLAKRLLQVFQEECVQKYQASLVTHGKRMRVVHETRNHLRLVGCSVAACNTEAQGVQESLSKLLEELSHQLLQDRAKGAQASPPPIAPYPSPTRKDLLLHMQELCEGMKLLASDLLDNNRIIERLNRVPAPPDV
# [11] = molecular target: Insulin receptor (Homo sapiens) (UniProt P06213); conditions: Compound concentration 100.0 nM
# [12] = molecular target: Tyrosine-protein kinase JAK1 (Homo sapiens) (UniProt P23458); conditions: Compound concentration 100.0 nM
# [13] = system: Mast/stem cell growth factor receptor Kit (Homo sapiens), P10721 [V559D,T670I]; conditions: Compound concentration 100.0 nM
# Mast/stem cell growth factor receptor Kit (Homo sapiens), P10721 [V559D,T670I], sequence (P10721 whole entry V559D/T670I): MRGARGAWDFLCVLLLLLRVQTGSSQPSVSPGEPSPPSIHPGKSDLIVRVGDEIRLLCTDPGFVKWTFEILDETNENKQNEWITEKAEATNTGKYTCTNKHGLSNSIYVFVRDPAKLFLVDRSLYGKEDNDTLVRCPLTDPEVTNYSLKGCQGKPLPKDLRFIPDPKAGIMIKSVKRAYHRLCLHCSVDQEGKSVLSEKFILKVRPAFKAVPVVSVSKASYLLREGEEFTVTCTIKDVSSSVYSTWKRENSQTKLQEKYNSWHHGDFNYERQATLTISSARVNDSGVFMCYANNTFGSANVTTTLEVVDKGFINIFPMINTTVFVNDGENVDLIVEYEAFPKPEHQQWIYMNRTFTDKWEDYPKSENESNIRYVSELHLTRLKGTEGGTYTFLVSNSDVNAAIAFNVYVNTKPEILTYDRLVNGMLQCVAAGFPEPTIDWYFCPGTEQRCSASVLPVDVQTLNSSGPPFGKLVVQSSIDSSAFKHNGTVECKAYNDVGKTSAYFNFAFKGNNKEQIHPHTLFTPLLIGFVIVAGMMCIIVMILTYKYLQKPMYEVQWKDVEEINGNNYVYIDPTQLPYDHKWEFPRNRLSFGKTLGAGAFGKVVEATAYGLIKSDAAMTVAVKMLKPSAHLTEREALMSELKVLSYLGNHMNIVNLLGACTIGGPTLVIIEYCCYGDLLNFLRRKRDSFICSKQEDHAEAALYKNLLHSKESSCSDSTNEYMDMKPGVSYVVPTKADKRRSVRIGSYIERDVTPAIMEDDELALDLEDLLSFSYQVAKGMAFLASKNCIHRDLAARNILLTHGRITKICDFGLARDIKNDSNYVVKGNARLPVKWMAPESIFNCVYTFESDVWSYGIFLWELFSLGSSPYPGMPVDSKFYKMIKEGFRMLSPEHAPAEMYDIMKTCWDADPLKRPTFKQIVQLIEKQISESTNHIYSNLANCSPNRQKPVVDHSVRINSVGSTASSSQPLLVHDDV
# [14] = molecular target: Hepatocyte growth factor receptor (Homo sapiens) (UniProt P08581); conditions: Compound concentration 100.0 nM
# [15] = molecular target: MAP kinase-interacting serine/threonine-protein kinase 2 (Homo sapiens) (UniProt Q9HBH9); conditions: Compound concentration 100.0 nM
# MAP kinase-interacting serine/threonine-protein kinase 2 (Homo sapiens), sequence (Q9HBH9 whole entry, looked up): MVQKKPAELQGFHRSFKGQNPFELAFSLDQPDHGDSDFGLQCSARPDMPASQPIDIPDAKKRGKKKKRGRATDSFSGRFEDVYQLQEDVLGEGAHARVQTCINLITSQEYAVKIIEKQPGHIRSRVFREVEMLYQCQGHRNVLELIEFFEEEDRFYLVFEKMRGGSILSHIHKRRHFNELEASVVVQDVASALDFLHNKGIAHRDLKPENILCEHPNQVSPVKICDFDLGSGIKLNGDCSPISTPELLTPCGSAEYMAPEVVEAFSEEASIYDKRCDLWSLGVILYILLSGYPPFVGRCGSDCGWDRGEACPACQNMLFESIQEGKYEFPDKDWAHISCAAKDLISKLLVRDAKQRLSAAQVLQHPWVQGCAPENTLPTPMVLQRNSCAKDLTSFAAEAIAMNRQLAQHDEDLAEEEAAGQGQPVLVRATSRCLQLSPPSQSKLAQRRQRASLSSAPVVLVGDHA
# [16] = molecular target: Serine/threonine-protein kinase Nek11 (Homo sapiens) (UniProt Q8NG66); conditions: Compound concentration 100.0 nM
# [17] = molecular target: Serine/threonine-protein kinase Nek6 (Homo sapiens) (UniProt Q9HC98); conditions: Compound concentration 100.0 nM
# [18] = molecular target: Mitogen-activated protein kinase 14 (Homo sapiens) (UniProt Q16539); conditions: Compound concentration 100.0 nM
# [19] = molecular target: cAMP-dependent protein kinase catalytic subunit alpha (Homo sapiens) (UniProt P17612); conditions: Compound concentration 100.0 nM
# [20] = molecular target: Membrane-associated tyrosine- and threonine-specific cdc2-inhibitory kinase (Homo sapiens) (UniProt Q99640); conditions: Compound concentration 100.0 nM
# Membrane-associated tyrosine- and threonine-specific cdc2-inhibitory kinase (Homo sapiens), sequence (Q99640 whole entry): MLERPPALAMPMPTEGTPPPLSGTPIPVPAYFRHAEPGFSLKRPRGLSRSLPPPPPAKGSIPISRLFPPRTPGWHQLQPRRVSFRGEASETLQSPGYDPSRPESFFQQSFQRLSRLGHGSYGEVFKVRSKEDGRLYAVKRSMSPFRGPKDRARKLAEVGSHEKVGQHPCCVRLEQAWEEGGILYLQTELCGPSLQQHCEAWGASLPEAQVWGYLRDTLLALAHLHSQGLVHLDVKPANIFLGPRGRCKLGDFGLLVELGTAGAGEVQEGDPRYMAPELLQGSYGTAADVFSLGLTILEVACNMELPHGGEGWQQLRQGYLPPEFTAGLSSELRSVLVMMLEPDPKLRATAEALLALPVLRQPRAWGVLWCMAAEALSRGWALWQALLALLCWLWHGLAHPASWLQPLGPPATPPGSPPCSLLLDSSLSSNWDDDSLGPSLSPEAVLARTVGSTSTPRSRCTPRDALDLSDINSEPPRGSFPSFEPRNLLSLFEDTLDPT
# [21] = molecular target: Serine/threonine-protein kinase TAO3 (Homo sapiens) (UniProt Q9H2K8); conditions: Compound concentration 100.0 nM
# [22] = molecular target: Angiopoietin-1 receptor (Homo sapiens) (UniProt Q02763); conditions: Compound concentration 100.0 nM
# [23] = molecular target: Serine/threonine-protein kinase 32C (Homo sapiens) (UniProt Q86UX6); conditions: Compound concentration 100.0 nM
# Serine/threonine-protein kinase 32C (Homo sapiens), sequence (Q86UX6 whole entry): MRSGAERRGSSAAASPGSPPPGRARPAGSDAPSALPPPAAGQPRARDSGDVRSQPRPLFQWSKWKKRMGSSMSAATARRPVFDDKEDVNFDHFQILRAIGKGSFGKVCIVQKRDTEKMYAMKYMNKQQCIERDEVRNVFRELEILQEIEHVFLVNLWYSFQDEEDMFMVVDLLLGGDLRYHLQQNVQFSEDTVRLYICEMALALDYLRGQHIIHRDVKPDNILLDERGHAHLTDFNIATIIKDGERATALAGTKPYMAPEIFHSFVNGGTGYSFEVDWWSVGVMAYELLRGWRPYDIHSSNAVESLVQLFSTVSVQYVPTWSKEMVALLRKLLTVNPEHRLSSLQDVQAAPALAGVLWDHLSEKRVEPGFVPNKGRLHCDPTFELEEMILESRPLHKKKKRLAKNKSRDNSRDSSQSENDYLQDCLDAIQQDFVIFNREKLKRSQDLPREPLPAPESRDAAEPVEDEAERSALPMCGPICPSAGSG
# [24] = molecular target: Histamine H2 receptor (Homo sapiens) (UniProt P25021); conditions: Compound concentration 10.0 uM
# Aurora kinase C (Homo sapiens), sequence (Q9UQB9 whole entry): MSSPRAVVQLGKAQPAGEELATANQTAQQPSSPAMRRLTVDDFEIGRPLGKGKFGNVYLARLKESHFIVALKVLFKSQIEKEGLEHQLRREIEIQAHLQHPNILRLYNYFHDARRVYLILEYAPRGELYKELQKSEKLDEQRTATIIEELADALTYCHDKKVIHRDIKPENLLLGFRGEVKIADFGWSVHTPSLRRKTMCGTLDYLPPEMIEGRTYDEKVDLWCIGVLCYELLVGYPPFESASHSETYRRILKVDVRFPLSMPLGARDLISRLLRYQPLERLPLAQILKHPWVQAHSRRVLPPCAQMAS
# Atypical kinase COQ8A, mitochondrial (Homo sapiens), sequence (Q8NI60 163-647 limits assumed): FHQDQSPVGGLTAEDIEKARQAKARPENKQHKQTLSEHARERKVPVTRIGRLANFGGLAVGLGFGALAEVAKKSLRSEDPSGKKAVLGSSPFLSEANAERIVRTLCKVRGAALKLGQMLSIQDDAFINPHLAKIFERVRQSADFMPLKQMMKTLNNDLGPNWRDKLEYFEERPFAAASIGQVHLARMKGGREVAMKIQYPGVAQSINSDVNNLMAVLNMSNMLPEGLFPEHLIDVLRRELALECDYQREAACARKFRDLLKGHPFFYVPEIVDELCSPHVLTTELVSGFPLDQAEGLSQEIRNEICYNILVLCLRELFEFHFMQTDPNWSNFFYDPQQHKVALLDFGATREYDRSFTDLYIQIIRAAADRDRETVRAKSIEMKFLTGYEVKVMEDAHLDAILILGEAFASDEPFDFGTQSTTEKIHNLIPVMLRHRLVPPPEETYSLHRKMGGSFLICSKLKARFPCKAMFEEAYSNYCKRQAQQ
SMILES,residual activity [1] [%],residual activity [2] [%],residual activity [3] [%],residual activity [4] [%],residual activity [5] [%],residual activity [6] [%],residual activity [7] [%],residual activity [8] [%],residual activity [9] [%],residual activity [10] [%],residual activity [11] [%],residual activity [12] [%],residual activity [13] [%],residual activity [14] [%],residual activity [15] [%],residual activity [16] [%],residual activity [17] [%],residual activity [18] [%],residual activity [19] [%],residual activity [20] [%],also measured
Cc1c[nH]c2nccc(Oc3c(F)cc(Nc4cc(Cl)nc(N)n4)cc3F)c12 [BAY-549],89,100,72,100,89,100,99,54,95,93,80,80,83,83,90,75,99,100,28,98,residual activity [21]: 100%; residual activity [22]: 95%; residual activity [23]: 93%; inhibition [24]: 23.7%
Cn1cc(Cl)c2c(Oc3c(F)cc(Nc4cc(Cl)nc(N)n4)cc3F)ccnc21 [BAY-4900],89,100,97,100,98,100,100,61,99,100,90,89,91,90,90,85,100,100,90,100,residual activity [21]: 100%; residual activity [22]: 100%; residual activity [23]: 100%; inhibition [24]: 16.7%
